In patent US20190110473A1, “SYNERGISTIC WEED CONTROL FROM APPLICATIONS OF PYRIDINE CARBOXYLIC ACID HERBICIDES AND PHOTOSYSTEM II INHIBITORS” (Dow AgroSciences LLC, priority 2017, published 2019):

Columns and labels:
Assay in all cases: Greenhouse herbicidal activity, visual weed control
Type in all cases: in vivo
Conditions in all cases: 20-22 d
[1] = tested on: corn poppy (Papaver rhoeas; PAPRH)
Description: (§1) Seeds of the desired test plant species were planted in Sun Gro MetroMix® 306 planting mixture, which typically has a pH of 6.0 to 6.8 and an organic matter content of about 30 percent, in plastic pots with a surface area of 103.2 square centimeters (cm^2). When required to ensure good germination and healthy plants, a fungicide treatment and/or other chemical or physical treatment was applied. The plants were grown for 7-36 days (d) in a greenhouse with an approximate 14 hour (h) photoperiod which was maintained at about 18° C. during the day and 17° C. during the night. Nutrients and water were added on a regular basis and supplemental lighting was provided with overhead metal halide 1000-Watt lamps as necessary. The plants were employed for testing when they reached the second or third true leaf stage.
(§2) An aliquot of formulated Compound 1 (100 grams acid equivalent per liter (g ae/L); emusifiable concentrate (EC)) was placed in a 25 mL glass vial and diluted in a volume of 1.25% (volume per volume (v/v)) aqueous methylated soybean seed oil to obtain a stock solution. The concentrated stock solutions were diluted with an aqueous mixture of 1.25% v/v of aqueous methylated soybean seed oil to provide the appropriate application rates. Compound requirements are based upon a 12 mL application volume at a rate of 187 liters per hectare (L/ha). Compositions of Compound 1 and the photosystem II inhibitor herbicides (propanil, amicarbazone, pyridafol, desmedipham, terbacil, or bromacil) were prepared by adding aliquot or weighted amount of the photosystem II inhibitor into the diluted solutions of Compound 1. The compositions of Compound 1 and the photosystem II inhibitor herbicides were applied to the plant material with an overhead Mandel track sprayer equipped with 8002E nozzles calibrated to deliver 187 L/ha over an application area of 0.503 square meters (m^2) at a spray height of 18 inches (43 centimeters (cm)) above average plant canopy. Control plants were sprayed in the same manner with the solvent blank.
(§3) The efficacy of each of these herbicidal compositions was then evaluated against rapeseed (Brassica napus; BRSNN), shepherd's purse (Capsella bursa-pastoris; CAPBP), common chickweed (Stellaria media; STEME), scentless mayweed (Matricaria inodora; MATIN), corn chamomile (Anthemis arvensis; ANTAR), wild chamomile (Matricaria chamomilla; MATCH), Persian speedwell (Veronica persica; VERPE), ivyleaf speedwell (Veronica hederifolia; VERHE), corn poppy (Papaver rhoeas; PAPRH), kochia (Kochia scoparia; KCHSC), and Canada thistle (Cirsium arvense; CIRAR). The treated plants and control plants were placed in a greenhouse as described above and watered by subirrigation to prevent washoff of the test compounds. After 20-22 d, the condition of the test plants as compared with that of the control plants was determined visually and scored on a scale of 0 to 100 percent where 0 corresponds to no injury and 100 corresponds to complete kill. […]
(§4) The values reported are means.

[2] = tested on: wild chamomile (Matricaria chamomilla; MATCH)
Description: as §1, §2, §3, §4

[3] = tested on: Canada thistle (Cirsium arvense; CIRAR)
Description: as §1, §2, §3, §4

[4] = tested on: Persian speedwell (Veronica persica; VERPE)
Description: as §1, §2, §3, §4

[5] = tested on: ivyleaf speedwell (Veronica hederifolia; VERHE)
Description: as §1, §2, §3, §4

[6] = tested on: shepherd's purse (Capsella bursa-pastoris; CAPBP)
Description: as §1, §2, §3, §4

[7] = tested on: scentless mayweed (Matricaria inodora; MATIN)
Description: as §1, §2, §3, §4

[8] = tested on: rapeseed (Brassica napus; BRSNN)
Description: as §1, §2, §3, §4

[9] = tested on: kochia (Kochia scoparia; KCHSC)
Description: as §1, §2, §3, §4

[10] = tested on: common chickweed (Stellaria media; STEME)
Description: as §1, §2, §3, §4

[11] = tested on: corn chamomile (Anthemis arvensis; ANTAR)
Description: as §1, §2, §3, §4

CC(C)c1nn(C(=O)NC(C)(C)C)c(=O)n1N [Amicarbazone, amicarbazone]
Obs (% visual control) ([1]; PAPRH, Amicarbazone 300 g/ha alone): 30% | Obs (% visual control) ([2]; Amicarbazone 300 g/ha alone): 95% | Obs (% visual control) ([3]; Amicarbazone 300 g/ha alone): 50% | Obs (% visual control) ([4]; Amicarbazone 300 g/ha alone): 20% | Obs (% visual control) ([5]; Amicarbazone 300 g/ha alone): 50% | Obs (% visual control) ([6]; Amicarbazone 300 g/ha alone): 50% | Obs (% visual control) ([7]; Amicarbazone 300 g/ha alone): 30% | Obs (% visual control) ([8]; Amicarbazone 300 g/ha alone): 60% | Obs (% visual control) ([9]; Amicarbazone 300 g/ha alone): 50% | Obs (% visual control) ([10]; Amicarbazone 300 g/ha alone): 20% | Obs (% visual control) ([11]; Amicarbazone 300 g/ha alone): 30%

CCC(C)n1c(=O)[nH]c(C)c(Br)c1=O (stereo not shown) [Bromacil, bromacil]
Obs (% visual control) ([1]; R-PAPRH, Bromacil 900 g/ha alone): 100% | Obs (% visual control) ([2]; Bromacil 900 g/ha alone): 100% | Obs (% visual control) ([3]; Bromacil 900 g/ha alone): 10% | Obs (% visual control) ([4]; Bromacil 900 g/ha alone): 10% | Obs (% visual control) ([5]; Bromacil 900 g/ha alone): 30% | Obs (% visual control) ([6]; Bromacil 900 g/ha alone): 65% | Obs (% visual control) ([7]; Bromacil 900 g/ha alone): 100% | Obs (% visual control) ([8]; Bromacil 900 g/ha alone): 65% | Obs (% visual control) ([9]; Bromacil 900 g/ha alone): 97% | Obs (% visual control) ([10]; Bromacil 900 g/ha alone): 100% | Obs (% visual control) ([11]; Bromacil 900 g/ha alone): 30%

Nc1c(F)c(-c2ccc3cc[nH]c3c2F)nc(C(=O)O)c1Cl [Compound 1]
Obs (% visual control) ([1]; PAPRH (R-PAPRH in Tables 1 and 6), Compound 1 5 g/ha alone): 75% | Obs (% visual control) ([1]; PAPRH (R-PAPRH in Tables 1 and 6), Compound 1 10 g/ha alone): 80% | Obs (% visual control) ([2]; Compound 1 5 g/ha alone): 10% | Obs (% visual control) ([2]; Compound 1 10 g/ha alone): 10% | Obs (% visual control) ([3]; Compound 1 5 g/ha alone): 10% | Obs (% visual control) ([3]; Compound 1 10 g/ha alone): 30% | Obs (% visual control) ([4]; Compound 1 5 g/ha alone): 70% | Obs (% visual control) ([4]; Compound 1 10 g/ha alone): 85% | Obs (% visual control) ([5]; Compound 1 5 g/ha alone): 75% | Obs (% visual control) ([5]; Compound 1 10 g/ha alone): 75% | Obs (% visual control) ([6]; Compound 1 5 g/ha alone): 65% | Obs (% visual control) ([6]; Compound 1 10 g/ha alone): 70% | Obs (% visual control) ([7]; Compound 1 5 g/ha alone): 10% | Obs (% visual control) ([7]; Compound 1 10 g/ha alone): 60% | Obs (% visual control) ([8]; Compound 1 5 g/ha alone): 40% | Obs (% visual control) ([8]; Compound 1 10 g/ha alone): 50% | Obs (% visual control) ([9]; Compound 1 5 g/ha alone): 50% | Obs (% visual control) ([9]; Compound 1 10 g/ha alone): 55% | Obs (% visual control) ([10]; Compound 1 5 g/ha alone): 65% | Obs (% visual control) ([10]; Compound 1 10 g/ha alone): 70% | Obs (% visual control) ([11]; Compound 1 5 g/ha alone): 10% | Obs (% visual control) ([11]; Compound 1 10 g/ha alone): 40%

CCOC(=O)Nc1cccc(OC(=O)Nc2ccccc2)c1 [Desmedipham, desmedipham]
Obs (% visual control) ([1]; PAPRH, Desmedipham 163 g/ha alone): 0% | Obs (% visual control) ([2]; Desmedipham 163 g/ha alone): 10% | Obs (% visual control) ([3]; Desmedipham 163 g/ha alone): 0% | Obs (% visual control) ([4]; Desmedipham 163 g/ha alone): 10% | Obs (% visual control) ([5]; Desmedipham 163 g/ha alone): 10% | Obs (% visual control) ([6]; Desmedipham 163 g/ha alone): 0% | Obs (% visual control) ([7]; Desmedipham 163 g/ha alone): 10% | Obs (% visual control) ([8]; Desmedipham 163 g/ha alone): 15% | Obs (% visual control) ([9]; Desmedipham 163 g/ha alone): 0% | Obs (% visual control) ([10]; Desmedipham 163 g/ha alone): 0% | Obs (% visual control) ([11]; Desmedipham 163 g/ha alone): 10%

CCC(=O)Nc1ccc(Cl)c(Cl)c1 [Propanil, propanil]
Obs (% visual control) ([1]; R-PAPRH, Propanil 840 g/ha alone): 20% | Obs (% visual control) ([2]; Propanil 840 g/ha alone): 10% | Obs (% visual control) ([3]; Propanil 840 g/ha alone): 10% | Obs (% visual control) ([4]; Propanil 840 g/ha alone): 10% | Obs (% visual control) ([5]; Propanil 840 g/ha alone): 10% | Obs (% visual control) ([6]; Propanil 840 g/ha alone): 50% | Obs (% visual control) ([7]; Propanil 840 g/ha alone): 0% | Obs (% visual control) ([8]; Propanil 840 g/ha alone): 10% | Obs (% visual control) ([9]; Propanil 840 g/ha alone): 10% | Obs (% visual control) ([10]; Propanil 840 g/ha alone): 0% | Obs (% visual control) ([11]; Propanil 840 g/ha alone): 50%

O=c1cc(Cl)[nH]nc1-c1ccccc1 [Pyridafol, pyridafol]
Obs (% visual control) ([1]; PAPRH, Pyridafol 195 g/ha alone): 0% | Obs (% visual control) ([2]; Pyridafol 195 g/ha alone): 0% | Obs (% visual control) ([3]; Pyridafol 195 g/ha alone): 0% | Obs (% visual control) ([4]; Pyridafol 195 g/ha alone): 0% | Obs (% visual control) ([5]; Pyridafol 195 g/ha alone): 0% | Obs (% visual control) ([6]; Pyridafol 195 g/ha alone): 0% | Obs (% visual control) ([7]; Pyridafol 195 g/ha alone): 10% | Obs (% visual control) ([8]; Pyridafol 195 g/ha alone): 5% | Obs (% visual control) ([9]; Pyridafol 195 g/ha alone): 0% | Obs (% visual control) ([10]; Pyridafol 195 g/ha alone): 0% | Obs (% visual control) ([11]; Pyridafol 195 g/ha alone): 0%

Cc1[nH]c(=O)n(C(C)(C)C)c(=O)c1Cl [Terbacil, terbacil]
Obs (% visual control) ([1]; PAPRH, Terbacil 113 g/ha alone): 10% | Obs (% visual control) ([2]; Terbacil 113 g/ha alone): 60% | Obs (% visual control) ([3]; Terbacil 113 g/ha alone): 30% | Obs (% visual control) ([4]; Terbacil 113 g/ha alone): 30% | Obs (% visual control) ([5]; Terbacil 113 g/ha alone): 60% | Obs (% visual control) ([6]; Terbacil 113 g/ha alone): 30% | Obs (% visual control) ([7]; Terbacil 113 g/ha alone): 10% | Obs (% visual control) ([8]; Terbacil 113 g/ha alone): 10% | Obs (% visual control) ([9]; Terbacil 113 g/ha alone): 0% | Obs (% visual control) ([10]; Terbacil 113 g/ha alone): 10% | Obs (% visual control) ([11]; Terbacil 113 g/ha alone): 0%
